We go through 1 compound from patent publication US11324720B2, “Antiproliferative DNA polymerase inhibitor” (NEW YORK MEDICAL COLLEGE, priority 2018, dated 2022).

The target of one test is T1, Pol δ (Homo sapiens, UniProt P28340).
T1 construct: made in house; host or cells: insect cells (Pol δ); E. coli (PCNA)
Description: poly(dA)/oligo(dT) DNA polymerase assay. Type of test: biochemical. From the text: In order to validate the predicted inhibitory properties of zelpolib, we used the well-established DNA polymerase assay, poly(dA)/oligo(dT) method^1,16, to quantify the inhibition constants. In this assay, a poly(dA) template (up to 4 kilobases) was randomly primed with oligo(dT) primers (40 mer). In the presence of proliferating cell nuclear antigen (PCNA), Pol δ will initiate the elongation of oligo dT primer with the incorporation of radio-labeled deoxythymidine (^3H). The polymerase activity can then be precisely quantified by counting the isotope incorporated.
A model structure of the catalytic domain of human Pol δ was generated based on the structure of yeast pol δ^72 by SWISSPDB^73. The primary sequences of both proteins are conserved and the active sites structures were virtually identical between the model structure and that of yeast pol δ. […] Subsequently, the 300 compounds with the highest scores were selected and analyzed by Pymol. […]
Three different assays are used to analyze DNA polymerase activities and the impact of zelpolib. The poly(dA)/oligo(dT) assay^1,16 were used for precisely quantification as reported. […] [3H]dTMP incorporation was read on liquid scintillation counter. […]

A further test deals with R-BxPC-3 cells. Description: Cell proliferation assay, MTT method. It counts as cell-based, human. The conditions noted are these: R-BxPC-3 (cisplatin resistant). From the text: DNA replication precedes cell division. Thus, cancer cells cannot divide and proliferate without successful chromosomal duplication. A DNA polymerase inhibitor should inhibit cancer cell proliferation. We characterized the antiproliferative properties of zelpolib on a number of cell lines originated from pancreatic cancer (BxPC-3) and breast cancer (MCF7 for ER+ breast cancer). In addition, we developed a cisplatin resistant subline of a pancreatic cancer cell line, R-BxPC3 for our studies as well. We used the MTT method^25 for analyzing cell proliferation. This assay is based on the reduction of 3-(4,5-dimethylthiazol-2-yl)-2,5-diphenyltetrazolium bromide by live cells to an insoluble formazon, which were subsequently dissolved in DMSO and quantified by UV absorbance. Therefore, the cell number is proportional to the optical density in the established linear region. […] The plateau phenomena indicate inhibition of proliferation without cell killing, similar to these observed from hydroxyurea^26, aphidicolin^27, and to a certain extent, methotrexate treatments^28. […]
Human cancer cells (5×10^3-7.5×10^3) were initially seeded in 96-well plates (Cellstar) containing 0.2 ml media per well. […] Formazan crystals were then dissolved in 150 μl DMSO and optical density was read at 490 nm^25. […] Results were analyzed by GraphPad Prism. […]
On the technique in general: Tetrazolium dyes change colour on reduction, which living cells bring about.

T1 sequence (P28340 whole entry): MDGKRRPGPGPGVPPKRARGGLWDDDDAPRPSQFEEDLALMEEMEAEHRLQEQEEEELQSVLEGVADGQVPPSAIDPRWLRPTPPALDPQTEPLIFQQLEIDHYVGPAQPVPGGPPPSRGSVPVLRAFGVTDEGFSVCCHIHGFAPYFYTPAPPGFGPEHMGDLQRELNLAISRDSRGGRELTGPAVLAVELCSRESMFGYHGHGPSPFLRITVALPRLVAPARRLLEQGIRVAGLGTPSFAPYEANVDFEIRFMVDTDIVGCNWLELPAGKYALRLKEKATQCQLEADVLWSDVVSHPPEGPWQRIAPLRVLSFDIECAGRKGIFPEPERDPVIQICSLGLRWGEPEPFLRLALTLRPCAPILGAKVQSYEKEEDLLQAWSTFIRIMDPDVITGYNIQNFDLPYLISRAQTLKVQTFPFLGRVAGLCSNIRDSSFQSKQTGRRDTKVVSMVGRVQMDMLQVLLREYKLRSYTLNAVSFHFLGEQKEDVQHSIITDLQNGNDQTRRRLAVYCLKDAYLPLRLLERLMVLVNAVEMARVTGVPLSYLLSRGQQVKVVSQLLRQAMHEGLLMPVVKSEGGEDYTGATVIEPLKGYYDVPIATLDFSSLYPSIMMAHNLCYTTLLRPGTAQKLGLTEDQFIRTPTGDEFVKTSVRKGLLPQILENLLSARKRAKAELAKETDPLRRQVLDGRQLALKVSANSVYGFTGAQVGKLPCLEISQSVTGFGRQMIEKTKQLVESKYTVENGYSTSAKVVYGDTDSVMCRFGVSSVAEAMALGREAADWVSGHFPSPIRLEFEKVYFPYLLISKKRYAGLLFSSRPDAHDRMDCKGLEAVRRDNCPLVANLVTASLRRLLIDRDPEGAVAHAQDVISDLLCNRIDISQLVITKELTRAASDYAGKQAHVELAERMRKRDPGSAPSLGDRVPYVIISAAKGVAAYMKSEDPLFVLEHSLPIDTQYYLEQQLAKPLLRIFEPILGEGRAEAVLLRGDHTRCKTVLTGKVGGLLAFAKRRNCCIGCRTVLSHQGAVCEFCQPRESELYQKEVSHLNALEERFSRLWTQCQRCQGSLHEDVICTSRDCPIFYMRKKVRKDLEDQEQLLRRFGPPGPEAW
T1 sequence (P49005 whole entry partner): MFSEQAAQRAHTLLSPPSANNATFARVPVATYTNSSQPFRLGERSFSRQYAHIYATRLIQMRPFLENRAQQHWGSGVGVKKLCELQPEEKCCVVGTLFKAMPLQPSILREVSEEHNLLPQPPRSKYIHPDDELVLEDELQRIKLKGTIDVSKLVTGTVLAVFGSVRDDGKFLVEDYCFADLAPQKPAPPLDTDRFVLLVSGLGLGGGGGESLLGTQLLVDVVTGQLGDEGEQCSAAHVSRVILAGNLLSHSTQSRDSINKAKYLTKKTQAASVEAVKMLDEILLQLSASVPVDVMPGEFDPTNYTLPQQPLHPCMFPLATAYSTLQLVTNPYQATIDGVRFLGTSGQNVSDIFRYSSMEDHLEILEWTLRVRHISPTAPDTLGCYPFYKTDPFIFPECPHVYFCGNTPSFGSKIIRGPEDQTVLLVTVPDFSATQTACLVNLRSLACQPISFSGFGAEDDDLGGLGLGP
T1 sequence (Q15054 whole entry partner): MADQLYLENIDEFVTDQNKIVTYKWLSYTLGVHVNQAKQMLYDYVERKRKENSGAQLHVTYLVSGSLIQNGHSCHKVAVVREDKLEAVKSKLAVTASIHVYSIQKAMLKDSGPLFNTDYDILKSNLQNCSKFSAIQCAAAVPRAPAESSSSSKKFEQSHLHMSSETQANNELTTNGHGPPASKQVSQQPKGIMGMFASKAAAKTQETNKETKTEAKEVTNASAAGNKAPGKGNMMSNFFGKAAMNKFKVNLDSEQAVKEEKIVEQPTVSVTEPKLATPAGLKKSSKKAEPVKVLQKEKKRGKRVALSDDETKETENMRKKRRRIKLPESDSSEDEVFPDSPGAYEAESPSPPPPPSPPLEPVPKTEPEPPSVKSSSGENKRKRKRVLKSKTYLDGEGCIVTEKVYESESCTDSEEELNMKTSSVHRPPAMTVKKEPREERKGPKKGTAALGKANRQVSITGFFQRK
T1 sequence (P12004 whole entry partner): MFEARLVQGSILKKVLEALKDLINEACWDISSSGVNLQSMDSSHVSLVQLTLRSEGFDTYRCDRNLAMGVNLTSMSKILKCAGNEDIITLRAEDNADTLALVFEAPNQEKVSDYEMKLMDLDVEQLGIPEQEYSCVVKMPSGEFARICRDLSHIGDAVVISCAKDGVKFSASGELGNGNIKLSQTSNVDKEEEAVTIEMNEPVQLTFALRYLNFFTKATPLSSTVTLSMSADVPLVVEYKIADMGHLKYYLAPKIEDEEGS

With `COC(=O)c1cc(-c2ccccc2)sc1NC(=S)NNC(=O)CCc1ccc(O)c(O)c1` [zelpolib], the “inhibition of Pol δ activity at 10 μM” value on Pol δ (assayed at 10 μM) was “significant inhibition”. The inhibition constant Ki on Pol δ (non-competitive against dTTP, with PCNA, R^2=0.99, read-out: inhibition constant Ki of Pol δ activity) was found to be 4.3 µM. Further, the “concentration at which antiproliferative effect reaches a plateau” value in the test on R-BxPC-3 cells was “about 5 μM”.

As a reminder, the Ki is a dissociation constant, usually derived from enzyme kinetics or from competition with a known ligand.
